Data published in the supplement of paper PMC10307832.

Tests used:
Experiment in all cases: relative viability (nuclei count vs DMSO), 5 days (fraction); higher = more cells survive
[1] = compound: COc1cc2ncn(-c3cc(OCc4ccccc4C(F)(F)F)c(C(N)=O)s3)c2cc1OC + O=C(c1cc(Cc2n[nH]c(=O)c3ccccc23)ccc1F)N1CCN(C(=O)C2CC2)CC1 [Olaparib] (partner 8 µM)
In short: (§1)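 Lung cancer cell lines in 1536-well plates were dosed by pin tool the day after seeding, either with one drug alone or with a fixed anchor-drug dose plus five library-drug doses (not always all listed) in √10 steps. After 5 days, cells were fixed and their nuclei stained in one step (final 0.05% Triton X-100, 1% formaldehyde, 1 ug/ml Hoechst), then counted on 4× images. Relative viability is the nuclei count in treated wells divided by that in vehicle wells. Values are medians of duplicate plates.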

[2] = compound: COc1cc2ncn(-c3cc(OCc4ccccc4C(F)(F)F)c(C(N)=O)s3)c2cc1OC + CC(=O)c1c(C)c2cnc(Nc3ccc(N4CCNCC4)cn3)nc2n(C2CCCC2)c1=O [Palbociclib] (partner 0.5 µM)
In short: as §1

[3] = compound: COc1cc2ncn(-c3cc(OCc4ccccc4C(F)(F)F)c(C(N)=O)s3)c2cc1OC + Nc1nc2[nH]cc(CCc3ccc(C(=O)N[C@@H](CCC(=O)O)C(=O)O)cc3)c2c(=O)[nH]1 [Pemetrexed] (partner 0.2 µM)
In short: as §1

[4] = compound: COc1cc2ncn(-c3cc(OCc4ccccc4C(F)(F)F)c(C(N)=O)s3)c2cc1OC + Cc1nc(NC(=O)N2CCC[C@H]2C(N)=O)sc1-c1ccnc(C(C)(C)C(F)(F)F)c1 [Alpelisib] (partner 2 µM)
In short: as §1

| Cell Line | relative viability ([1]; first compound 0.05 µM) | relative viability ([1]; first compound 0.1581 µM) | relative viability ([1]; first compound 0.5 µM) | relative viability ([1]; first compound 1.581 µM) | relative viability ([1]; first compound 5 µM) | relative viability ([2]; first compound 0.05 µM) | relative viability ([2]; first compound 0.1581 µM) | relative viability ([2]; first compound 0.5 µM) | relative viability ([2]; first compound 1.581 µM) | relative viability ([2]; first compound 5 µM) | relative viability ([3]; first compound 0.05 µM) | relative viability ([3]; first compound 0.1581 µM) | relative viability ([3]; first compound 0.5 µM) | relative viability ([3]; first compound 1.581 µM) | relative viability ([3]; first compound 5 µM) | relative viability ([4]; first compound 0.05 µM) | relative viability ([4]; first compound 0.1581 µM) | relative viability ([4]; first compound 0.5 µM) | relative viability ([4]; first compound 1.581 µM) | relative viability ([4]; first compound 5 µM) |
| --- | --- | --- | --- | --- | --- | --- | --- | --- | --- | --- | --- | --- | --- | --- | --- | --- | --- | --- | --- | --- |
| NCI-H2405 | 0.795 | 0.809 | 0.326 | 0.312 | 0.331 | 0.511 | 0.508 | 0.382 | 0.343 | 0.332 | 1.12 | 1.01 | 0.399 | 0.377 | 0.367 | 0.788 | 0.634 | 0.402 | 0.401 | 0.38 |
| NCI-H3122 | 0.682 | 0.585 | 0.149 | 0.141 | 0.146 | 0.189 | 0.202 | 0.148 | 0.14 | 0.13 | 0.21 | 0.196 | 0.16 | 0.124 | 0.11 | 0.842 | 0.514 | 0.203 | 0.149 | 0.197 |
| PC-3 [JPC-3] | 0.955 | 1.01 | 0.588 | 0.424 | 0.316 | 0.568 | 0.541 | 0.534 | 0.435 | 0.429 | 1.31 | 1.1 | 0.611 | 0.28 | 0.254 | 0.983 | 0.98 | 0.707 | 0.307 | 0.318 |
| PC-14 | 0.216 | 0.246 | 0.0786 | 0.0384 | 0.0696 | 0.503 | 0.403 | 0.154 | 0.0334 | 0.0605 | 0.132 | 0.148 | 0.126 | 0.048 | 0.0388 | 0.833 | 0.944 | 0.768 | 0.0614 | 0.135 |
| RERF-LC-KJ | 0.937 | 0.945 | 0.24 | 0.233 | 0.253 | 1.03 | 1.16 | 0.71 | 0.616 | 0.46 | 0.472 | 0.487 | 0.439 | 0.299 | 0.346 | 0.859 | 0.849 | 0.515 | 0.294 | 0.622 |
| SK-LU-1 | 0.39 | 0.372 | 0.272 | 0.197 | 0.207 | 0.404 | 0.355 | 0.349 | 0.212 | 0.214 | 0.7 | 0.886 | 0.351 | 0.298 | 0.272 | 1.02 | 0.778 | 0.276 | 0.291 | 0.306 |
| SK-MES-1 | 0.62 | 0.526 | 0.309 | 0.165 | 0.186 | 0.298 | 0.281 | 0.264 | 0.192 | 0.199 | 0.903 | 0.829 | 0.419 | 0.195 | 0.167 | 0.924 | 0.883 | 0.639 | 0.148 | 0.553 |
| SW 1573 | 0.442 | 0.428 | 0.188 | 0.103 | 0.119 | 0.355 | 0.432 | 0.177 | 0.123 | 0.127 | 0.839 | 0.742 | 0.594 | 0.149 | 0.136 | 0.828 | 0.669 | 0.629 | 0.326 | 0.182 |
| UMC-11 | 0.313 | 0.293 | 0.21 | 0.185 | 0.159 | 0.331 | 0.35 | 0.258 | 0.256 | 0.224 | 0.619 | 0.599 | 0.201 | 0.191 | 0.201 | 0.872 | 0.928 | 0.128 | 0.106 | 0.101 |
